Consider 10 compounds from ChEMBL document CHEMBL3596089, “Synthesis and characterization of novel oxazines and demonstration that they specifically target cyclooxygenase 2” (Bioorg Med Chem Lett, 2015).

SMILES strings stand for the structures.

In assay [1] the target is T1, Prostaglandin G/H synthase 2 (Homo sapiens, UniProt P35354).
T1 sequence (P35354 whole entry): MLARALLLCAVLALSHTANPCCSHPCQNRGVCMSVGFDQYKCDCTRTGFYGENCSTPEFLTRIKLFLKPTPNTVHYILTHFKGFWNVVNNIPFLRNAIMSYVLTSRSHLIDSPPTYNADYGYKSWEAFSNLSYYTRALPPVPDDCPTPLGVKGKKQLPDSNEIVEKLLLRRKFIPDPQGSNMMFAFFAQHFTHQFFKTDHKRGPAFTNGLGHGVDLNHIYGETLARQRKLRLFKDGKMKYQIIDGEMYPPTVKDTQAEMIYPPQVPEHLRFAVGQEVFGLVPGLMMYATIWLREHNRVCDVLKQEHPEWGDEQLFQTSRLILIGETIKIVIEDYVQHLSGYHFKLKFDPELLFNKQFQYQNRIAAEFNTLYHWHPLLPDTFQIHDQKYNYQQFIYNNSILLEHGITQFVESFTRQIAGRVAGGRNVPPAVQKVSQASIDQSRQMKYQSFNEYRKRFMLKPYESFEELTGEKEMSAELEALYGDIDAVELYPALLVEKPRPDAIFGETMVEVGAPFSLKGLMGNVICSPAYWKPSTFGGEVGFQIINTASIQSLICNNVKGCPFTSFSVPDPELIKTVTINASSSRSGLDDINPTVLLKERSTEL
Kind of assay: Inhibition of COX2 (unknown origin).

In assay [2] the target is Prostaglandin G/H synthase 1 (Homo sapiens, UniProt P23219). Kind of assay: Inhibition of COX1 (unknown origin).

In general, IC50 refers to the midpoint of a concentration-inhibition curve. Read a low IC50 as higher potency.

Prostaglandin G/H synthase 1, sequence (P23219 whole entry): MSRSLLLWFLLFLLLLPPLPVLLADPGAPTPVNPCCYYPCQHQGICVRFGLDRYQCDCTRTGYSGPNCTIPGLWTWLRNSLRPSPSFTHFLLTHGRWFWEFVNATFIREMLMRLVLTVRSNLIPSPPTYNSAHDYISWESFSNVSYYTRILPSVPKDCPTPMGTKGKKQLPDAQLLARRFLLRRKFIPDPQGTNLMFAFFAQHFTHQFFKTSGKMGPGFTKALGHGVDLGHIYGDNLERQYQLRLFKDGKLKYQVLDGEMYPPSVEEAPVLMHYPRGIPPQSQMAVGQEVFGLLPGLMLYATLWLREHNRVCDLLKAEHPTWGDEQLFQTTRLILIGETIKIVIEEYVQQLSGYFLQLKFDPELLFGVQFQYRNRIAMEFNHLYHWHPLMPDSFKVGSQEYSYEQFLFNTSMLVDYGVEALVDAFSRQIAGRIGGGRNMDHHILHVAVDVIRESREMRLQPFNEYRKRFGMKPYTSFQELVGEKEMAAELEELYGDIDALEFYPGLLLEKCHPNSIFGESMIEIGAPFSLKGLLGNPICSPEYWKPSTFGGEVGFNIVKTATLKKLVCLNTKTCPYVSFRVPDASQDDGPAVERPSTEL

On to `CC1(C)CC(c2ccc(Cl)cc2)C(CN2CCC(c3noc4cc(F)ccc34)CC2)=NO1` (stereo not given), for which the figures for the IC50 in assay [1] and in assay [2] were 4.1 µM and 40.1 µM, respectively.
The corresponding values for `COc1ccc([C@H]2C(CN3CCN(c4ccc(OC)cc4)CC3)=NO[C@@H]3CCCC[C@H]23)cc1` are 1.7 µM and 40.4 µM.
The corresponding values for `CC1(C)CC(c2ccccc2)C(CN2CCC(c3noc4cc(F)ccc34)CC2)=NO1` (stereo not given) are 10.5 µM and 39.8 µM.
In the same order, the values of `COc1ccc([C@H]2C(Cn3c4ccccc4c4ccccc43)=NO[C@@H]3CCCC[C@H]23)cc1` are 5.9 µM and 50.8 µM.
For `CC1(C)CC(c2ccccc2)C(CN2CCN(c3cccc(Cl)c3Cl)CC2)=NO1` (stereo not given), the values for the IC50 in assay [1] and in assay [2] were 6.8 µM and 54.9 µM, respectively.
In the same order, the values of `c1ccc([C@H]2C(Cn3c4ccccc4c4ccccc43)=NO[C@@H]3CCCC[C@H]23)cc1` are 9.9 µM and 59.9 µM.
For the compound `CC1(C)CC(c2ccc(Cl)cc2)C(Cn2c3ccccc3c3ccccc32)=NO1` (stereo not given), the results for the IC50 in assay [1] and in assay [2] were 3.9 µM and 40.8 µM, respectively.
Consider `COc1ccc(N2CCN(CC3=NO[C@@H]4CCCC[C@@H]4[C@H]3c3ccccc3)CC2)cc1`, for which the figures for the IC50 in assay [1] and in assay [2] were 1.8 µM and 35.8 µM, respectively.
The corresponding values for `Fc1ccc2c(C3CCN(CC4=NO[C@@H]5CCCC[C@@H]5[C@H]4c4ccccc4)CC3)noc2c1` are 4.7 µM and 42.8 µM.
As to `COc1ccc(N2CCN(CC3=NOC(C)(C)CC3c3ccccc3)CC2)cc1` (stereo not given), the IC50 in assay [1] amounted to 2.6 µM; in assay [2], 50.6 µM.
